In PubChem BioAssay (NCI):
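Cultured in 96-well plates, cells were exposed to test compound for 48 hours across five concentrations. At the GI50, growth is halved. TGI: total growth inhibition.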

Columns and labels:
Assay in all cases: NCI tumour cell line growth inhibition, 48 h
[1] = tested on: SW-620 colon
[2] = tested on: UACC-257 melanoma
[3] = tested on: SF-539 CNS
[4] = tested on: HCT-116 colon
[5] = tested on: ACHN renal
[6] = tested on: SN12C renal
[7] = tested on: CAKI-1 renal
[8] = tested on: RPMI-8226 leukemia
[9] = tested on: SF-268 CNS
[10] = tested on: K-562 leukemia

Compound | TGI [1] [µM] | TGI [2] [µM] | TGI [3] [µM] | TGI [4] [µM] | TGI [5] [µM] | TGI [6] [µM] | TGI [7] [µM] | TGI [8] | TGI [9] [µM] | GI50 [2] [µM] | GI50 [10] [µM] | TGI [10] [µM] | GI50 [6] | GI50 [8] | GI50 [9] | GI50 [1] | GI50 [4] | GI50 [5] | GI50 [7] [µM] | GI50 [3]
Nc1ccc2[nH]cc(CCC(=O)O)c2c1 | > 100 | > 100 | > 100 | > 100 | > 100 | > 100 | > 100 | > 100 µM | > 100 |  |  |  |  |  |  |  |  |  |  | 
Clc1cc(Cl)cc(Nc2ccc3cc(OCCCN4CCOCC4)ccc3n2)c1 |  | 4.34 |  |  |  | > 100 |  | 7.08 µM | > 100 | 1.96 | 1.58 | 4.42 | 3.46 µM | 2.2 µM | 2.9 µM |  |  |  |  | 
COc1cc(C2C(C(=O)Nc3cc(F)c(F)cc3F)=C(C)NC(C)=C2C(=O)Nc2cc(F)c(F)cc2F)ccc1O | > 100 | 54.8 | 59.6 |  | 65.3 | 84.5 | 42.8 | 47.3 µM | > 100 |  |  | 49.6 |  |  |  |  |  |  |  | 
CC(=O)OCCOCNC(=S)N/N=C/c1ccc(Br)s1 | > 100 | > 100 | > 100 | > 100 | > 100 | > 100 |  | > 100 µM | > 100 |  |  | > 100 |  |  |  |  |  |  |  | 
O=C1CSC(c2ccc(-c3nc4ccccc4s3)cc2)=N1 | > 100 | 75.7 |  | > 100 | > 100 | 99.4 | > 100 | 52.6 µM |  | 30.8 | 16.7 | 50.4 | 36.9 µM | 23.2 µM |  | 50.5 µM | 24.7 µM | 55.6 µM | 17.4 | 
Cc1cccc(N=C2NC(=O)C(CC(=O)Nc3cccc(C)c3C)S2)c1 (stereo not given) | > 100 | > 100 |  | > 100 | > 100 | > 100 |  | > 100 µM | > 100 |  |  |  |  |  |  |  |  |  |  | 
Nc1nc(N)c2cc(CNc3ccc(C(=O)NC(CC(=O)O)C(=O)O)c(Cl)c3)ccc2n1 (stereo not given) | > 500 |  | > 500 | > 500 | > 500 | > 500 | > 500 | > 500 µM |  |  | 0.05 | > 500 | 0.05 µM | 2.77 µM | 0.189 µM | 0.05 µM | 0.05 µM | 0.05 µM | 0.05 | 0.05 µM
C=CCN1CC2CON(C(=O)C(OC)(c3ccccc3)C(F)(F)F)C2C1C(C)C (stereo not given) |  |  |  |  |  |  |  | 41.7 µg/mL |  |  |  |  | 41.9 µg/mL | 9.82 µg/mL | 70.5 µg/mL | 62.8 µg/mL | 24.2 µg/mL | 38.1 µg/mL |  | 66.5 µg/mL
O=C(O)C12CC3(C(=O)O)CC(C(=O)O)(CC(C(=O)O)(C1)C3=O)C2=O | > 100 | > 100 |  | > 100 | > 100 | > 100 | > 100 | > 100 µM | > 100 |  |  | > 100 |  |  |  |  |  |  |  | 
Cc1ccc(S(=O)(=O)NC(=O)NC2=NC(C)(C)N(c3ccc(Cl)c(Cl)c3)C(N)=N2)cc1 | > 100 | > 100 | > 100 | > 100 | > 100 | > 100 | > 100 |  | > 100 |  |  | > 100 |  |  |  |  |  |  |  | 
CC1=C(c2cc(C(=O)Nc3ccc(Cl)cc3)nc(=S)[nH]2)Sc2ccccc2N1 | > 100 | > 100 | > 100 | > 100 | > 100 | > 100 | > 100 |  | > 100 |  |  | > 100 |  |  |  |  |  |  |  | 
OCCNCCOc1ccc(/C(=C(/Cl)c2ccccc2)c2ccccc2)cc1 | 17.3 | 12 | 26.6 | 20.2 |  | 19.7 | 25.7 | 17.3 µM |  |  |  | 11 |  |  |  |  |  |  |  | 
CCCCCc1ccc(S(=O)(=O)Nc2cc(-c3csc(NC(C)=O)n3)ccc2N2CCN(C)CC2)cc1 | 4.72 | 11.4 | 9.63 | 4.43 | 9.24 | 9.25 | 9.48 |  | 11.6 | 4.48 | 1.03 | 3.4 | 4.7 µM |  | 5.52 µM | 1.31 µM | 1.11 µM | 4.87 µM | 4.84 | 4.98 µM
CCN(CC)c1cc2oc3cc(N)cc(=N)c-3nc2cc1C | 19.5 | 34 | 14.2 | 5.69 | > 100 | 6.13 | 6.78 | 23.7 µM | 18.2 | 3.11 |  |  | 1.94 µM | 1.03 µM | 3.26 µM | 2.75 µM | 1.83 µM | 1.69 µM | 1.65 | 3.44 µM
O=C1C(Cl)=C(Nc2ccccc2O)C(=O)N1Cc1ccccc1 |  |  |  | 33.7 | 55.8 | 29.9 | 68.7 | 27.2 µM | 52.2 |  | 15.5 | 33.6 | 16.4 µM | 12.5 µM | 20.8 µM |  | 19.6 µM | 20.6 µM | 26 | 
COc1ccc2c(c1)C(C)Cc1c(ncnc1-n1cnc3cc(C)ccc31)N2C (stereo not given) | 16.1 | 20.8 |  | 14.9 | 15.3 | 20.5 | 12.6 | 3.88 µM | 15 | 0.158 | 0.0386 | 15.2 | 0.38 µM | 0.0407 µM | 0.222 µM | 0.087 µM | 0.0736 µM | 0.0688 µM | 0.0604 | 
Cc1cccc(C(C)C)c1NC(=O)C(=O)C(C(=O)c1ccccc1F)C1OC(=O)c2ccccc21 (stereo not given) | 58.9 | 29.4 |  | 27.5 | > 100 | 46.8 | 70.5 | 28.5 µM | 92.9 |  |  | > 100 |  |  |  |  |  |  |  | 
Cn1cc(-c2ccc(-c3cncc(Cl)c3N3CCC4(CCNC4=O)CC3)cc2)cn1 | > 100 | > 100 | > 100 | > 100 | > 100 | > 100 |  | 95.3 µM | > 100 | > 100 | 26.9 | > 100 | 63.2 µM | 17 µM | 61.2 µM | 47.7 µM | 24.3 µM | 23 µM |  | 27.8 µM
Cc1cc(C(C)(C)C)cc(Cc2cc(C(C)(C)C)cc(Cc3cc(C(C)(C)C)cc(C)c3O)c2O)c1O | 17.4 | 20.8 | 23.6 | 10.2 |  | 33.6 | 25.6 | 6.44 µM | 12.2 |  |  | 16.4 |  |  |  |  |  |  |  | 
c1ccc(CSc2nc3ccccc3nc2-c2cccs2)cc1 |  | > 100 | > 100 | > 100 | > 100 | > 100 |  | > 100 µM | > 100 |  |  | > 100 |  |  |  |  |  |  |  | 
O=C(O)CN(c1ccccc1)S(=O)(=O)c1ccc([N+](=O)[O-])cc1 | > 100 | > 100 | > 100 |  | > 100 | > 100 | > 100 | > 100 µM |  |  |  | > 100 |  |  |  |  |  |  |  | 
CN(C)CCSc1nccc(-c2cc3ccccc3s2)n1 | 36.7 |  | 37.2 | 50.9 |  | > 100 | 56.7 |  |  |  |  |  |  |  |  |  |  |  |  | 
CCCCc1c2c(nc3c1CCC/C3=C\c1ccccc1)/C(=C/c1ccccc1)CCC2 | > 100 | > 100 | > 100 | > 100 | > 100 | > 100 |  | > 100 µM | > 100 |  |  | > 100 |  |  |  |  |  |  |  | 
CCOc1ccccc1NC(=O)C(=O)Cc1nc2ccccc2s1 | > 100 | > 100 | > 100 | > 100 | > 100 | > 100 | > 100 |  | > 100 |  |  |  |  |  |  |  |  |  |  | 
CC1CN1c1c(C(=O)/C=C/c2ccc(Cl)cc2)c(-c2ccccc2)nn(C)c1=O (stereo not given) | 6.81 | > 10 | 4.14 | 6.47 | 5.27 | 8.45 | > 10 |  | > 10 |  |  | 8.8 |  |  |  |  |  |  |  | 
CC(=O)OC1C2CCC1C1C2C2(Cl)C(Cl)=C(Cl)C1(Cl)C2(Cl)Cl (stereo not given) | 28.4 | 27.4 | 30.7 | 27.8 | 25.9 | 28.4 | 27 | 27.4 µM | 32.6 |  |  |  |  |  |  |  |  |  |  | 
CC(C)C1=C2CCC3(C)C(CCC4C5C6OCC5(CCC6(C)C)CCC43C)C2(C)CC1 (stereo not given) | 50.8 | 36.1 | 32.9 | 34.4 | 35.9 | 29.9 | 38.3 | 42.9 µM | 69.9 |  |  |  |  |  |  |  |  |  |  | 
O=C(N/N=C/c1ccc([N+](=O)[O-])o1)c1ccc(O)cc1 | > 100 | 18.8 | 17 | 12 | > 100 | > 100 | > 100 | 48.3 µM | > 100 | 4.97 |  |  | 4.03 µM | 3.35 µM | 6.73 µM | 3.85 µM | 3.63 µM | 5.46 µM | 7.26 | 4.39 µM
CC(C)(C)OC(=O)N1N=NC2C1C1CC(OCc3ccccc3)(OCc3ccccc3)C2O1 (stereo not given) | 47.6 | 63.7 |  |  | > 100 | > 100 | > 100 | 63.6 µM | > 100 |  |  | 63.6 |  |  |  |  |  |  |  | 
